From US9687845B2, “Self-loading microfluidic device and methods of use” (Wisconsin Alumni Research Foundation, priority 2011, dated 2017)
Like-named read-outs stand apart in the source and are kept apart here.

Columns and labels:
[1] = test system: kanamycin-resistant strain of E. coli MG1655; assay: Susceptibility to multiple antibiotics on a single microfluidic device using breakpoint values; format: cell-based; details: 18 h; for effect on growth of the strain: vancomycin 2, 4, 8 μg/mL, tetracycline 0.5, 1, 2 μg/mL, kanamycin 1, 2, 4 μg/mL
Text: In this Example, a single microfluidic device was used to simultaneously test the susceptibility of the kanamycin-resistant strain of E. coli MG1655 described above to multiple antibiotics using breakpoint values.
In clinical microbiology, a strain is classified as susceptible, intermediate, or resistant based on the relationship of the MIC of an antibiotic to specified ‘breakpoint’ values. Breakpoint values are set by organizations, such as the CLSI, and take into consideration MIC values of wild type strains, pharmacokinetic/pharmacodynamic data, and clinical outcomes. Breakpoint values are available for specific clinically relevant pairings of bacterial species and antibiotics and enable clinical decisions without knowing the exact MIC value.
Specifically, vancomycin, tetracycline, and kanamycin were added to the reaction wells of a single device. The most common breakpoints for vancomycin (susceptible <2 μg/mL, resistant >2 μg/mL), tetracycline (susceptible <1 μg/mL, intermediate=2 μg/mL, resistant >2 μg/mL), and gentamicin (susceptible <2 μg/mL, intermediate=4 μg/mL, resistant >4 μg/mL) were used. As there are no published breakpoints available for kanamycin, the breakpoint values for the structurally related aminoglycoside, gentamicin, against aerobic bacteria was used. A microfluidic device with ten chambers was prepared as described in Example 1 above. The ten chambers were divided into three chambers for each antibiotic vancomycin (2, 4, 8 μg/mL), tetracycline (0.5, 1, 2 μg/mL), and kanamycin (1, 2, 4 μg/mL) and one chamber for a control containing no antibiotic.

E. coli (MG1655) [2] = assay: Off-chip MIC, broth dilution method according to CLSI protocols; format: cell-based; design: MIC, Broth: unit not given beside the values; details: for MIC, Broth: E. coli, broth dilution, CAMHB, 20 h at 35° C.
Protocol: (§1) Off-chip MIC assays using the broth dilution method according to CLSI protocols were performed as control experiments and to validate experimental data obtained with the microfluidic device.

P. mirabilis (HI4320) [3] = assay: as above; format: cell-based; design: unit not given beside the values; details: CAMHB, 20 h at 35° C.
Protocol: as §1

E. faecalis (1131) [4] = assay: as above; format: cell-based; design: unit not given beside the values; details: CAMHB, 20 h at 35° C. (vancomycin 24 h)
Protocol: as §1

K. pneumoniae [5] = assay: as above; format: cell-based; details: CAMHB, 20 h at 35° C.
Protocol: as §1

E. coli (MG1655) [6] = assay: MIC measurement using the self-loading microfluidic device; format: cell-based; details: for MIC, Device: E. coli, 18 h at 35° C., CAMBH pH 8.2 with 1% glucose and 0.05% phenol red, dilution series 0.5-1024 μg/mL
Protocol: (§2) Minor adjustments were made to procedures mimicking the CLSI guidelines to perform MIC measurements using microfluidic devices prepared as described above. Antibiotic stock solutions (10 mg/mL in sterile deionized water) of vancomycin hydrochloride, tetracycline hydrochloride, and kanamycin monosulfate were used to prepare a 1:10 dilution series. Appropriate amounts of these dilutions were added to sterile deionized water to create a two-fold dilution series that varied from 0.5-1024 μg/mL. Antibiotic solution (2.94 μL) was added to each chamber with the lowest antibiotic concentration located closest to the inlet port and the highest antibiotic concentration located in the chamber closest to the vacuum well. After antibiotic loading, the device was placed in a laminar flow hood to evaporate the liquid. After the liquid was evaporated, the device was assembled by placing the layer of PDMS forming the channel section over the chamber layer containing the dried antibiotic such that the channels connected the chambers. The assembled device was then placed under vacuum.
(§3) The standardized culture was then diluted 1:200 in CAMBH media, pH 8.2 supplemented with 1% glucose and 0.05% phenol red to provide a colorimetric change upon growth. The device was removed from the vacuum and 20 μL of cell suspension was pipetted onto the inlet port. […] Bacterial growth changed the pH of the liquid nutrient media containing the indicator phenol red, and produced a visible color change that was used to identify the cell growth in chambers.

P. mirabilis (HI4320) [7] = assay: as above; format: cell-based; details: 18 h at 35° C., CAMBH pH 8.2 with 1% glucose and 0.05% phenol red, dilution series 0.5-1024 μg/mL
Protocol: as §2, §3

K. pneumoniae [8] = assay: as above; format: cell-based; details: 18 h at 35° C., CAMBH pH 8.2 with 1% glucose and 0.05% phenol red, dilution series 0.5-1024 μg/mL
Protocol: as §2, §3

E. faecalis (1131) [9] = assay: as above; format: cell-based; details: 18 h at 35° C., CAMBH pH 8.2 with 1% glucose and 0.05% phenol red, dilution series 0.5-1024 μg/mL
Protocol: as §2, §3

[10] = test system: kanamycin-resistant E. coli strain (from MG1655); assay: microbe, parasite or virus in culture; details: Escherichia coli, MG1655, 18 h, read-out: MIC of the resistant strain
Protocol: Specifically, 100 μL of an overnight culture of E. coli MG1655 were plated on LB agar plates supplemented with 16 μg/mL kanamycin; the antibiotic concentration was ˜2× the MIC of kanamycin measured against E. coli MG1655. […] One of these colonies was characterized for its sensitivity to kanamycin in the microfluidic device. The kanamycin-resistant strain was compared to the wild type parent strain.
The devices were assembled and placed under vacuum for degassing. After the devices were removed from the vacuum, an aliquot (20 μL) of a suspension of cells of the resistant strain was introduced into the inlet port of one device and an aliquot (20 μL) of a suspension of cells of the wild type strain was introduced into the inlet port of the second device. Degas-driven flow filled and isolated the samples in the chambers. The devices were incubated for 18 h at 35° C. in a humidified incubator.
To eliminate external equipment needed for interpreting the test results, a pH sensor was incorporated to indicate cell growth. Specifically, the pH indicator phenol red (0.05% w/v) and glucose (1% w/v) were added to CAMHB media and adjusted the pH to 8.2. Phenol red was selected as it produces a distinct color change close to neutral pH and is not absorbed by PDMS. At the initial pH of the nutrient media, pH 8.2, phenol red appears bright red. […]

[11] = test system: kanamycin-resistant E. coli strain (from MG1655); assay: microbe, parasite or virus in culture; details: Escherichia coli, MG1655, read-out: MIC of the resistant strain, control broth dilution
Protocol: A 1:10 dilution series of the stock solutions in cation-adjusted Mueller-Hinton broth (CAMHB) was prepared and added to CAMBH (pH 7.3) to create a two-fold series dilution in which the total volume was 1 mL. Cell solutions of E. faecalis (1131), P. mirabilis (HI4320), K. pneumoniae, and E. coli (MG1655) were prepared in 13×100 mm tubes by adjusting the concentration of cells in overnight cultures to match the turbidity of a 0.5 McFarland standard (˜10^8 CFU/mL) using CAMHB. The solutions were diluted 100-fold in CAMHB and 1 mL of the suspension was added to 1 mL of antibiotic solution—prepared as described above—to yield a final cell concentration of ˜5×10^5 CFU/mL. The cultures were incubated for 20 h in a humidified incubator at 35° C. (no shaking) with the exception of experiments with vancomycin and E. faecalis, which were incubated for 24 h according to CLSI protocols. The MIC was determined as the lowest concentration of antibiotic at which no growth was visible after incubation.
Thus, the MIC of the kanamycin-resistant E. coli strain and the susceptible strain was determinable by visually identifying the chamber containing the lowest concentration of kanamycin in which the pH indicator remained red.

| SMILES | effect on growth of the strain [1] | phenotype of the strain by breakpoint values ([1]; tetracycline breakpoints) | MIC, Broth (E. coli (MG1655) [2]) | MIC, Broth (P. mirabilis (HI4320) [3]) | MIC, Broth (E. faecalis (1131) [4]) | MIC, Broth (K. pneumoniae [5]) | MIC, Device (E. coli (MG1655) [6]) | MIC, Device (P. mirabilis (HI4320) [7]) | MIC, Device (K. pneumoniae [8]) | MIC, Device (E. faecalis (1131) [9]) | MIC (E. coli (MG1655) [2]; Escherichia coli, MG1655, Example 5, standard liquid broth dilution assay, read-out: MIC of the wild type strain, control broth dilution) [µg/mL] | MIC [10] [µg/mL] | MIC (E. coli (MG1655) [6]; Escherichia coli, MG1655, Example 5, 18 h at 35° C., phenol red indicator, read-out: MIC of the wild type strain) [µg/mL] | MIC [11] [µg/mL] |
| --- | --- | --- | --- | --- | --- | --- | --- | --- | --- | --- | --- | --- | --- | --- |
| CN(C)[C@@H]1C(O)=C(C(N)=O)C(=O)[C@@]2(O)C(O)=C3C(=O)c4c(O)cccc4[C@@](C)(O)[C@H]3C[C@@H]12.Cl [tetracycline, tetracycline hydrochloride] | inhibited the growth | intermediate (intermediate=2 μg/mL) | 1 | 256 | 32 | 8 | 2 | 128 | 8 | 64 | – | – | – | – |
| NC[C@H]1O[C@H](O[C@H]2[C@H](O)[C@@H](O[C@H]3O[C@H](CO)[C@@H](O)[C@H](N)[C@H]3O)[C@H](N)C[C@@H]2N)[C@H](O)[C@@H](O)[C@@H]1O [kanamycin, kanamycin monosulfate] | did not have any effect | – | 8 | 4 | 64 | 2 | 4 | 8 | 2 | 128 | 8 | 64 | 4 | 128 |
